According to patent publication US20210261636A1, “NEOANTIGENS EXPRESSED IN MULTIPLE MYELOMA AND THEIR USES” (Janssen Biotech, Inc., priority 2020, published 2021):

Assays:
[1] = test system: CD4+ T cells; assay: Exogenous autologous healthy donor restimulation assay, TNFα and IFNγ production by CD4+ T cells; format: cell-based, human; design: Frequency (TNFα+ IFNγ+ CD4 T cells): unit not given here; conditions: donor independent, peptide pool 10 μg/mL, healthy donors; for Fold change (CD4+) vs. DMSO: maximum CD4+ T-cell response (TNFα and IFNγ); for Frequency (TNFα+ IFNγ+ CD4 T cells): maximum CD4+ T-cell response
Description: (§1) Immunogenicity responses were measured by estimating TNFα IFNγ double positive cells in the CD4+ and/or CD8+ T-cell populations. A response is considered positive if TNFα IFNγ double positive fraction was greater than or equal to three-fold over unstimulated cells (DMSO negative control) with a minimum frequency >=0.01%. […]
(§2) Overlapping 15-mer peptides were designed to span each indicated neoantigen. Their ability to activate T cells was assessed using known methods, such as the assay defnied as exogenous autologous normal donor restimulation assay. The peptides were used as pools using TNFα and IFNγ production by CD8^+ and CD4^+ T cells as a readout. Maximum frequency of CD8^+TNFα^+IFNγ^+ and CD4^+TNFα^+IFNγ^+ T cells and maximum fold change over background for each pool of peptides were analyzed, which were calculated as the highest frequency of CD8^+ TNFα^+IFNγ^+ and CD4^+ TNFα^+IFNγ^+ T cells and resulting fold change across the normal donors evaluated for the peptide.
(§3) CD1c+Dendritic Cells (CD1c+DC) isolated from human healthy PBMCs were thawed using media (IMDM (Gibco) supplemented with glutamine, HEPES, 5% human serum (Sigma), and 1× Pen-Strep). DC cells were resuspended in media supplemented with IL-4 (Peprotech, 20 ng/mL) and GM-CSF (Gibco, 20 ng/mL), plated in 6 well microplates, and rested overnight at 37° C. and 5% CO2 incubator. The following day, DC cells were counted and plated in a 96 well round bottom microplate at a concentration of 30,000 viable cells per well. Lyophilized neoantigen peptide pools (15-mer peptides with 8-mer overlapping peptide sequences) were solubilized in 100% DMSO with a stock concentration of 20 mg/mL Neoantigen peptides pools were added to DCs for a final concentration of 10 μg/mL and rested for 2 hours at 37° C. and 5% CO2 incubator. CEF Peptide Pool “Plus” (Cellular Technologies, Ltd.) was utilized as a positive control (each viral peptide at a final concentration of 4 ug/ml) and DMSO at the same final concentration (0.05%) as the experimental peptides was utilized as a negative control. After 2 hours, DC cells were irradiated with 50 gray of ionizing radiation. Autologous CD3+ Pan-T cells isolated from human normal PBMCs were thawed using media. Following irradiation, autologous Pan-T cells were added to the irradiated DCs at 300,000 viable cells per well. Human IL-15 (Peprotech) was added to all wells at final concentration of 10 ng/ml. Plates were incubated at 37° C. and 5% CO2 incubator for a total of 12 days. Media was refreshed every 2-3 days with IL-15 (R&D System, 10 ng/mL final concentration) and IL-2 (R&D systems, 10 IU/mL final concentration).
(§4) On Day 11, cells were re-stimulated with identical experimental peptide pools or controls, at same concentration as peptide stimulation on Day 1. Protein Inhibitor Cocktail (eBioscience) was added to every well and plate was incubated overnight for 14-16 hours at 37° C. and 5% CO2 incubator. On Day 12, cells were stained for surface and intracellular flow cytometry analysis. The cells were washed with PBS and stained with Live/Dead Fixable Aqua Dead Cell stain (Thermo-Fisher). Following the live/dead stain, cells were blocked using Biotin-Free Fc Receptor Blocker (Accurate Chemical & Scientific Corp). Extracellular cellular flow panel (1 μL/antibody per well in 50 μL) consisted of CD3 PerCP-Cy5.5 (Biolegend), CD4 BV421 (Biolegend), and CD8 APC-Cy7 (Biolegend). After extracellular staining, cells were fixed and permeabilized using Foxp3/Transcription Factor Staining Buffer Set (eBioscience) and stained for intracellular proteins (1:50 dilution) using TNFα FITC (R&D Systems) and IFNγ BV785 (Biolegend). Cells were washed and resuspended in stain buffer, analyzed, and recorded in a BD Celesta flow cytometer.
(§5) Flow cytometry analysis was conducted on FlowJo v10.6 software. Cells were gated on live, singlet, CD3+, CD4+ and CD8+ T cells. The CD8+ and CD4+ T cells were analyzed for TNFα and IFNγ expression. […]

[2] = test system: CD8+ T cells; assay: Exogenous autologous healthy donor restimulation assay, TNFα and IFNγ production by CD8+ T cells; format: cell-based, human; design: Frequency (TNFα+ IFNγ+ CD8 T cells): unit not given here; conditions: for Fold change (CD8+) vs. DMSO: maximum CD8+ T-cell response (TNFα and IFNγ); for Fold change (CD8+) vs. DMSO / Frequency (TNFα+ IFNγ+ CD8 T cells): donor independent, peptide pool 10 μg/mL, healthy donors; for Frequency (TNFα+ IFNγ+ CD8 T cells): maximum CD8+ T-cell response; for Immunogenic (yes/no): positive if CD8+ and/or CD4+ double positive TNFα/IFNγ frequency >=3-fold over DMSO and at least 0.01%
Description: as §1, §2, §3, §4, §5

Row | Sequence | Fold change (CD4+) vs. DMSO [1] | Frequency (TNFα+ IFNγ+ CD4 T cells) [1] | Fold change (CD8+) vs. DMSO [2] | Frequency (TNFα+ IFNγ+ CD8 T cells) [2] | Immunogenic (yes/no) [2]
1 | GEPGEDAGIGRPEEREREEEMADQ [AS135, alternative splicing, ZBP1] | 3.73 | 0.03 | 2.68 | 0.092 | No
2 | GEVKWSVGSRTSLLL [FUS38, gene fusion CD79B-> GH1] | 4.06 | 0.007 | 23.41 | 0.18 | Yes
3 | GFFETEMAVPFFSRKIRKVRRAIMKWTFCCYFY [AS118, alternative splicing, IARS] | 7.692 | 0.15 | 106.428 | 1.01 | Yes
4 | GGPPFVGPLRGPRAQPSLSGLCGRRTGSRDTIKIPGQT [FUS42, gene fusion RBM42-> ETV2] | 9.54 | 0.11 | 14.72 | 0.027 | Yes
5 | GKSTPPRKEIFDDASP [FUS11, gene fusion GAB1-> SMARCA5] | 11.4 | 0.008 | 7.36 | 0.013 | Yes
6 | GNVLVRYVSLYVYYILLN [AS97, alternative splicing, ANKRD28] | 96.12 | 0.57 | 13446.33 | 23.8 | Yes
7 | GRAGQGGGMISVSQEFIK [FUS7, gene fusion FAM98A-> LOC105374454] | 17.18 | 0.21 | 3.04 | 0.093 | Yes
8 | GTTRLLSGEDFS [AS111, alternative splicing, CD55] | 16.71 | 0.06 | 1.16 | 0.012 | Yes
9 | IDPSSPLHTYYERITKGRNPERRYMKPERISPGHEAMEKNLEDNL [AS129, alternative splicing, TET1] | 9.79 | 0.022 | 19.08 | 0.27 | Yes
10 | IEKSISARITEQ [FUS36, gene fusion TNFRSF17-> SNX29] | 4.69 | 0.008 | 8.7 | 0.013 | Yes
11 | IENEGGQVRSRPAPS [AS56, alternative splicing, ADGRE5] | 3.71 | 0.019 | 5 | 0.069 | Yes
12 | IIMALAILDLFAVLKIEAHKQLLLKSFCYGAGK [AS113, alternative splicing, CLCC1] | 5.7 | 0.009 | 5.07 | 0.38 | Yes
13 | ILAQKKKDELSS [AS93, alternative splicing, TJP1] | 9.9 | 0.015 | 1.44 | 0.014 | Yes
14 | IMLIGNKSNCQKQLLRDMKILNEFYHGLILTLQLS [AS126, alternative splicing, RAB2B] | 6.861 | 0.04 | 161.72 | 0.49 | Yes
15 | ISKRLKSRRRSGWQLNRAGNRGLSPGLGLFPRGCCRWGGAYTRLPSANQT [FUS20, gene fusion PTGES2-> SLC25A25-AS1] | 11.664 | 0.068 | 511.064 | 4.85 | Yes
16 | KKEDVNFQVKQLIH [AS96, alternative splicing, ANKRD28] | 5.47 | 0.027 | 7.34 | 0.15 | Yes
17 | KLLYEVSQKMVL [AS50, alternative splicing, PDZRN4] | 8.29 | 0.041 | 3.032 | 0.038 | Yes
18 | KRYGCVFQVSIRHLSFPVTDILP [AS77, alternative splicing, TRAF3] | 7.547 | 0.046 | 369.64 | 1.12 | Yes
19 | LARQISFKSLI [FUS14, gene fusion UBE2J1-> GABRR2] | 256.93 | 0.19 | 3.27 | 0.005 | Yes
20 | LDPPHDEKALACPQWTLLWIFWTAKAL [AS95, alternative splicing, WDR64] | 19.58 | 0.014 | 1.58 | 0.13 | Yes
21 | LDQCVETLCSLSKSD [FUS44, gene fusion ZGPAT-> LIME1] | 4.8 | 0.024 | 4.82 | 0.097 | Yes
22 | LEDKELGRISVCPWTEGLEKMEKTLLCSSSG [AS88, alternative splicing, CADPS2] | 79.18 | 0.12 | 4.55 | 0.025 | Yes
23 | LGRLEEAKSFETEEN [AS121, alternative splicing, OGT] | 1.41 | 0.02 | 194.72 | 0.59 | Yes
24 | LGRLEEAKVPLKMLLF [AS122, alternative splicing, OGT] | 13.71 | 0.048 | 3.63 | 0.044 | Yes
25 | LLPPGQESAIIGPPGMQ [FUS45, gene fusion IFNAR2-> IL10RB] | 10.56 | 0.1 | 88.8 | 0.43 | Yes
